Measurements: patent US4931391A, “Method for preservation of nitrile hydration activity” (Mitsubishi Rayon Kabushiki Kaisha, priority 1986, dated 1990)
Where two headings read alike, the source gives them in different places.

Columns and labels:
[1] = biological target: T1, (Rhodococcus erythropolis, UniProt P13448+P13449); test: Preservation of nitrile hydration activity of cell extract (crude enzyme solution), stabilizer added before crushing cells; type: biochemical, Corynebacterium strain N-774(FERM P-4446); conditions: left standing 2 days at 20° C.; buffer containing 10 g/l stabilizer mixed 1:1, pH 6.5
T1 sequence (P13448 2-207 limits assumed): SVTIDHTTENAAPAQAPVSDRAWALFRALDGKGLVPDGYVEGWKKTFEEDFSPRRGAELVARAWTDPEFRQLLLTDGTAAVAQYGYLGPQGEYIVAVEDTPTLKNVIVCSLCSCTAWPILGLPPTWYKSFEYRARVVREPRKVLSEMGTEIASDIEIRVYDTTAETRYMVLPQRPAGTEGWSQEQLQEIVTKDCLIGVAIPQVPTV
T1 sequence (P13449 1-212): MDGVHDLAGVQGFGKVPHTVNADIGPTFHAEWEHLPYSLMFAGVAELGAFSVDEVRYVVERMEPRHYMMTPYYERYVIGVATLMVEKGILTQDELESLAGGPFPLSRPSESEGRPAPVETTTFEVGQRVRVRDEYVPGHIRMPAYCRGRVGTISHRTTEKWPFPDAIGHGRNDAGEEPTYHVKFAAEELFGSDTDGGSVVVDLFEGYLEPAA
Procedure: (§1) A culture medium comprising 10 g/l of glucose, 5 g/l of peptone, 3 g/l of yeast extract, and 3 g/l of malt extract was adjusted to a pH of 7.2, and 100 ml of the resulting culture medium was sterilized in a 500-ml Erlenmeyer flask.
(§2) After cooling, the sterilized culture medium was inoculated with 1 ml of a culture fluid obtained by precultivating strain N-774(FERM P-4446) of the genus Corynebacterium in the same culture medium as is described above for 2 days, and cultivation was carried out aerobically at 30° C. for 2 days.
(§3) Cells were separated from the culture fluid by centrifugation (3° C., 10,000 rpm, 20 minutes) and washed with a physiological saline. The washed cells were subjected to centrifugation under the same conditions and then suspended in a physiological saline to obtain a suspension of washed cells.
(§4) The residual nitrile hydration activity percent (in Table 1, as in all succeeding tables, abbreviated to % residual activity) was calculated on the basis of the data thus obtained.

[2] = biological target: T2, nitrilase (Rhodococcus erythropolis, UniProt P13448+P13449); test: as above; type: biochemical, Corynebacterium strain N-774(FERM P-4446)
T2 sequence (P13448 2-207 limits assumed): T1 sequence (P13448 2-207 limits assumed)
T2 sequence (P13449 1-212): T1 sequence (P13449 1-212)
Procedure: as §1, §2, §3, §4

[3] = system: nitrilase; conditions: 1 ml + 1 ml buffer pH 6.5 containing 10 g/l stabilizer, 2 days at 20° C.
Procedure: (§5) In each of the following experimental examples, 0.1 ml of an enzyme solution was charged into a beaker containing 9.9 ml of phosphate buffer and irradiated with a 100-W EYE LAMP (supplied by Toshiba, Japan) positioned at a distance of 50 cm for 30 minutes in a bath maintained at 10° C. to induce the enzyme activity to the fullest extent. The resulting solution was then added to 10 ml of M/20 phosphate buffer (pH 7.7) containing 5.0% by weight of acrylonitrile to cause reaction at 10° C. for 10 minutes. The nitrile hydration activity of the test enzyme solution was determined by measuring the quantity of acrylamide produced by gas chromatography, the capability of producing 1μ mole of acrylamide per ml of the enzyme solution per minute being designated as 1 unit (U).
Each aliquot of a suspension of cells of a genus as shown in Table 2 prepared as in Comparison Example 1 was subjected to French press treatment and centrifugation similarly as in Comparison Example 1, whereby a cell extract was obtained.
(§6) The cell extract thus obtained was divided into two aliquots, 1 ml of one aliquot being mixed with 1 ml of M/10 phosphate buffer (pH 6.5) containing 10 g/l of ammonium isobutyrate, and 1 ml of the other aliquot being mixed with 1 ml of M/10 phosphate buffer (pH 6.5) as a comparison example. Both solutions were left standing for 2 days at 20° C., and the nitrile hydration activity levels were measured before and after each of the solutions were left standing to calculate % residual activity.

[4] = biological target: T3, (Rhodococcus erythropolis, UniProt P13448+P13449); test: Preservation of nitrile hydration activity of cell extract, Brevibacterium CBS-717; type: biochemical; conditions: 48 h; Brevibacterium CBS-717 extract; 1 ml + 1 ml buffer pH 6.5 containing 10 g/l stabilizer; 2 days at 20° C.; read-out: % Residual Activity
T3 construct: whereby a cell extract was obtained; endogenous in cells; host or cells: Brevibacterium CBS-717, French press cell extract
Procedure: as §5, with “(U). […]” for “(U).”
as §6

CC(C)C(=O)O.N [ammonium isobutyrate] was tested, and the “% Residual Activity” value [1] was 92%, the “Activity Before Being Left Standing” value ([2]; cell suspension mixed 1:1 with M/10 phosphate buffer pH 6.5 containing 10 g/l stabilizer, then French press) was 1.3 × 10^3 U/ml and the “Activity After Being Left Standing” value ([2]; same extract after 2 days at 20° C.) was 1.2 × 10^3 U/ml. The “% Residual Activity” value ([3]; Bacillus CBS-494 extract) was 83%, the “% Residual Activity” value ([3]; Bacteridium CBS-496 extract) was 78% and the “% Residual Activity” value ([3]; Micrococcus CBS-497 extract) was 91%. For the same compound, the “% Residual Activity” value ([3]; Nocardia N-775 extract) was 93% and the activity at 5000 µg/mL [4] was 89%.
